Measured values as given in patent US20260191849A1, “PHARMACEUTICAL COMPOSITION FOR TREATMENT OF CANCER” (WIGEN BIOMEDICINE TECHNOLOGY (SHANGHAI) CO., LTD., priority 2022, published 2026).
Like-named read-outs stand apart in the source and are kept apart here. Blank lines part the entries; values can stand above or below the molecule they belong to.

How the values were obtained:
[1] = system: HT29 subcutaneous xenograft tumors; assay: In vivo pharmacodynamic study, HT29 subcutaneous xenograft tumor model of mice (Biological Example 3); set-up: species or system BALB/c nude mice
Experimental: BALB/c nude mice were each inoculated subcutaneously with 5×10^6 HT29 cells on the left dorsal side. After the tumors grew to 100-150 mm^3, the mice were randomly divided into the following groups for intragastric administration once daily: group 1: vehicle control group; group 2: compound 661 (80 mg/kg); group 3: compound 669 (80 mg/kg); group 4: compound 677 (80 mg/kg); group 5: compound 714 (80 mg/kg); group 6: compound 727 (80 mg/kg); group 7: compound 740 (80 mg/kg); and group 8: AMG65 (80 mg/kg). The tumor volume was measured twice weekly and at the end of administration. […].

HT29 cells [2] = assay: Combined use of compound 257, AMG650 or Compound A with PLK1 inhibitor on HT29 cell viability, 168 h (Biological Example 19); type: cell-based; conditions: for IC50: HT29 cells
Experimental: HT29 cells were seeded on a 384-well plate at 3000 cells/well.

HCT116 cells = assay: Combined use of compound 257, AMG650 or Compound A with PLK1 inhibitor on HCT116 cell viability, 168 h (Biological Example 20); type: cell-based
Experimental: HCT116 cells were seeded on a 384-well plate at 3000 cells/well. After overnight adherence culture, DMSO or compound 257, AMG650, or Compound A serially diluted in a 1:5 ratio from 400 nM and a PLK1 inhibitor with a specified concentration were added. The cell viability was assessed 168 h after dosing by measuring the intracellular ATP content. The inhibition percentages of viable cells by the compounds were calculated by comparing with the DMSO group, and the IC50 values were also calculated.

SK-OV-3 cells = assay: Combined use of compound 257 or AMG650 with PLK1 inhibitor on SK-OV-3 cell viability, 168 h (Biological Example 21); type: cell-based; conditions: Homo sapiens, SK-OV-3, 168 h, SK-OV-3 cells, 168 h, read-out: Volasertib IC50
Experimental: (§1) SK—OV-3 cells were seeded on a 384-well plate at 3000 cells/well. After overnight adherence culture, DMSO or compound 257 or AMG650 serially diluted in a 1:5 ratio from 400 nM and a PLK1 inhibitor with a specified concentration were added. The cell viability was assessed 168 h after dosing by measuring the intracellular ATP content. […] Furthermore, interactions between the drugs were also analyzed using the BLISS independence model, and the results are shown in FIG. 11 and FIG. 12.

HT29 cells [3] = assay: Combined use of compound 257 or AMG650 with PLK1 inhibitor (Volasertib) on HT29 cell viability, 168 h (Biological Example 22); type: cell-based; conditions: Homo sapiens, HT-29, 168 h, HT29 cells, 168 h, read-out: Volasertib IC50
Experimental: as §1, with “HT29” for “SK—OV-3”, “15” for “11”, “16.” for “12.”

[4] = system: HT29 subcutaneous xenograft tumors; assay: In vivo pharmacodynamic study of combination therapy, HT29 subcutaneous xenograft tumor model of mice (Biological Example 14); set-up: species or system BALB/c nude mice
Source text: BALB/c nude mice were each inoculated subcutaneously with 5×10^6 HT29 cells on the left dorsal side. After the tumors grew to 100-150 mm^3, the mice were randomly divided into the following groups for intragastric administration once daily for 14 consecutive days: group 1: vehicle control group; group 2: AMG650 (50 mpk, PO, QD); group 3: compound 714 (50 mpk, PO, QD); group 4: AMG650 (50 mpk, PO, QD)+Onvasertib (20 mpk, PO, QD); group 5: compound 714 (50 mpk, PO, QD)+Onvasertib (20 mpk, PO, QD); and group 6: Onvasertib (20 mpk, PO, QD). The administration to all the groups was stopped on day 15, and the tumor growth continued to be observed until day 21. The tumor volume was measured twice weekly and at the end of administration. […]

[5] = 80 mg/kg intragastric once daily, day 28
[6] = KIF18A inhibitor AMG650 0.0001 nM
[7] = KIF18A inhibitor AMG650 0.64 nM
[8] = KIF18A inhibitor Compound 257 0.0001 nM
[9] = KIF18A inhibitor Compound 257 0.64 nM
[10] = KIF18A inhibitor Compound 257 3.2 nM
[11] = KIF18A inhibitor Compound 257 16 nM
[12] = KIF18A inhibitor Compound 257 80 nM
[13] = KIF18A inhibitor Compound 257 400 nM
[14] = PO QD 14 days, AMG650/714 50 mpk, Onvasertib 20 mpk, day 15

Compound: COc1ccc(NC(=O)c2ccc(S(=O)(=O)NCCOC(C)=O)cc2N2CCC3(CC2)CC3)nc1N1CCC(F)(F)CC1 [Compound 677]
TGI [1, 5]: 55%

IC50 (HT29 cells [2]; Homo sapiens, HT-29, 168 h, CYC140 (Plogosertib) 0.0001 nM, read-out: IC50): 26.1 nM
IC50 (HT29 cells [2]; Homo sapiens, HT-29, 168 h, CYC140 (Plogosertib) 1.6 nM, read-out: IC50): 19.6 nM
IC50 (HT29 cells [2]; Homo sapiens, HT-29, 168 h, CYC140 (Plogosertib) 8 nM, read-out: IC50): 15.5 nM
IC50 (HT29 cells [2]; Homo sapiens, HT-29, 168 h, CYC140 (Plogosertib) 40 nM, read-out: IC50): 2.2 nM
IC50 (HT29 cells [2]; Homo sapiens, HT-29, 168 h, TAK-960 0.0001 nM, read-out: IC50): 23.8 nM
IC50 (HT29 cells [2]; Homo sapiens, HT-29, 168 h, TAK-960 1.6 nM, read-out: IC50): 17.3 nM
IC50 (HT29 cells [2]; Homo sapiens, HT-29, 168 h, TAK-960 8 nM, read-out: IC50): 4.2 nM
IC50 (HT29 cells [2]; Homo sapiens, HT-29, 168 h, TAK-960 40 nM, read-out: IC50): 4.1 nM
IC50 (HCT116 cells; HCT116 cells, CYC140 (Plogosertib) 1.6 nM): > 400 nM
IC50 (HCT116 cells; HCT116 cells, CYC140 (Plogosertib) 8 nM): > 400 nM
IC50 (HCT116 cells; HCT116 cells, CYC140 (Plogosertib) 40 nM): > 400 nM
IC50 (HCT116 cells; HCT116 cells, TAK-960 0 nM): > 400 nM
IC50 (HCT116 cells; HCT116 cells, TAK-960 1.6 nM): > 400 nM
IC50 (HCT116 cells; HCT116 cells, TAK-960 8 nM): > 400 nM
IC50 (HCT116 cells; HCT116 cells, TAK-960 40 nM): > 400 nM
IC50 (HCT116 cells; Homo sapiens, HCT-116, HCT116 cells, CYC140 (Plogosertib) 0 nM): > 400 nM
Compound: CCS(=O)(=O)Nc1ccc2c(c1)C1(CCC3(CC3)CC1)CN2C(=O)c1cccc(S(=O)(=O)NC(C)(C)C)c1 [Compound A]
inhibitory effect on HT-29 cells, combined use with the PLK1 inhibitor compared with monotherapy (HT29 cells [2]; CYC140 or TAK-960, in words): stronger inhibitory effect
synergistic effect on HCT116 cell viability, combined use with the PLK1 inhibitor (HCT116 cells; CYC140 or TAK-960, in words): no significant synergistic effect
anti-proliferative activity against HCT116 cells, monotherapy (HCT116 cells; in words): did not exhibit anti-proliferative activity

IC50 (SK-OV-3 cells; [6]): 82.1 nM
IC50 (SK-OV-3 cells; [7]): 70.5 nM
IC50 (SK-OV-3 cells; KIF18A inhibitor AMG650 3.2 nM): 60.5 nM
IC50 (SK-OV-3 cells; KIF18A inhibitor AMG650 16 nM): 38.2 nM
IC50 (SK-OV-3 cells; KIF18A inhibitor AMG650 80 nM): 9.9 nM
IC50 (SK-OV-3 cells; KIF18A inhibitor AMG650 400 nM): 8.1 nM
IC50 (SK-OV-3 cells; [8]): 77.9 nM
IC50 (SK-OV-3 cells; [9]): 61.6 nM
IC50 (SK-OV-3 cells; [10]): 35.8 nM
IC50 (SK-OV-3 cells; [11]): 10.1 nM
IC50 (SK-OV-3 cells; [12]): 5.7 nM
IC50 (SK-OV-3 cells; [13]): 5.3 nM
IC50 (HT29 cells [3]; [6]): 22.8 nM
IC50 (HT29 cells [3]; [7]): 37.8 nM
IC50 (HT29 cells [3]; KIF18A inhibitor AMG650 3.2 nM): 34.9 nM
IC50 (HT29 cells [3]; KIF18A inhibitor AMG650 16 nM): 19.5 nM
IC50 (HT29 cells [3]; KIF18A inhibitor AMG650 80 nM): 18.3 nM
IC50 (HT29 cells [3]; KIF18A inhibitor AMG650 400 nM): 15.5 nM
IC50 (HT29 cells [3]; [8]): 17.2 nM
IC50 (HT29 cells [3]; [9]): 15.6 nM
IC50 (HT29 cells [3]; [10]): 10.2 nM
IC50 (HT29 cells [3]; [11]): 1.2 nM
IC50 (HT29 cells [3]; [12]): 1.4 nM
IC50 (HT29 cells [3]; [13]): 0.7 nM
Compound: CC[C@@H]1C(=O)N(C)c2cnc(Nc3ccc(C(=O)N[C@H]4CC[C@H](N5CCN(CC6CC6)CC5)CC4)cc3OC)nc2N1C(C)C [Volasertib]

Compound: COc1ccc(C(=O)Nc2ccc(NS(=O)(=O)CCOC(=O)[C@@H](N)C(C)C)cc2N2CCC3(CC2)CC3)nc1N1CCC(F)(F)CC1 [Compound 727]
Tumor volume on day 1 of administration ([1]; 80 mg/kg intragastric once daily, day 1 (baseline)): 121 mm^3
TGI [1, 5]: 73%
Tumor volume on day 28 of administration [1, 5]: 519 mm^3
inhibitory effects on the HT29 subcutaneous xenograft tumor in mice compared with AMG650 ([1]; 80 mg/kg, in words): stronger inhibitory effects

Compound: COc1ccc(C(=O)Nc2ccc(NS(=O)(=O)CCOC(C)=O)cc2N2CCC3(CC2)CC3)nc1N1CCC(F)(F)CC1 [Compound 669]
TGI [1, 5]: 30%

IC50 (HT29 cells [2]; KIF18A inhibitor AMG650 0.0001 nM, read-out: PLK1 inhibitor IC50): 50.1 nM
IC50 (HT29 cells [2]; KIF18A inhibitor AMG650 0.64 nM, read-out: PLK1 inhibitor IC50): 48.9 nM
IC50 (HT29 cells [2]; KIF18A inhibitor AMG650 3.2 nM, read-out: PLK1 inhibitor IC50): 49.9 nM
IC50 (HT29 cells [2]; KIF18A inhibitor AMG650 16 nM, read-out: PLK1 inhibitor IC50): 24.9 nM
IC50 (HT29 cells [2]; KIF18A inhibitor AMG650 80 nM, read-out: PLK1 inhibitor IC50): 7.9 nM
IC50 (HT29 cells [2]; KIF18A inhibitor AMG650 400 nM, read-out: PLK1 inhibitor IC50): 3.5 nM
IC50 (HT29 cells [2]; KIF18A inhibitor Compound 257 0.0001 nM, read-out: PLK1 inhibitor IC50): 52.1 nM
IC50 (HT29 cells [2]; KIF18A inhibitor Compound 257 0.64 nM, read-out: PLK1 inhibitor IC50): 37 nM
IC50 (HT29 cells [2]; KIF18A inhibitor Compound 257 3.2 nM, read-out: PLK1 inhibitor IC50): 15.5 nM
IC50 (HT29 cells [2]; KIF18A inhibitor Compound 257 16 nM, read-out: PLK1 inhibitor IC50): 3.8 nM
IC50 (HT29 cells [2]; KIF18A inhibitor Compound 257 80 nM, read-out: PLK1 inhibitor IC50): 1.6 nM
IC50 (HT29 cells [2]; KIF18A inhibitor Compound 257 400 nM, read-out: PLK1 inhibitor IC50): 2.2 nM
Compound: COc1cc(C(=O)N[C@H]2CC[C@H](N3CCN(C)CC3)CC2)ccc1Nc1ncc2c(n1)N(C1CCCC1)CC1(CC1)C(=O)N2C [CYC140 (Plogosertib), Plogosertib]

Compound: CN1CCN(c2ccc(OC(F)(F)F)c(Nc3ncc4c(n3)-c3c(c(C(N)=O)nn3CCO)CC4)c2)CC1 [Onvasertib, Onvansertib]
Tumor volume on day 1 of administration ([4]; PO QD 14 days, AMG650/714 50 mpk, Onvasertib 20 mpk, day 1 (baseline)): 134 mm^3
TGI on day 15 [4, 14]: 80%
Tumor volume on day 15 of administration [4, 14]: 249 mm^3
therapeutic efficacy of monotherapy in HT29-bearing mice ([4]; monotherapy, in words): relatively weak therapeutic efficacy
